According to publication PMC11062899, “De novo development of small cyclic peptides that are orally bioavailable” (Nature Chemical Biology, 2023):
Values joined by “and” are separate entries in the source; they are usually repeats but may differ in a detail not shown here. Equal entries are not always repeated. Where two headings read alike, the source gives them in different places.

Columns and labels:
porcine pepsin = biological target: T1, porcine pepsin (Sus scrofa, UniProt P00791); assay: Peptide stability in simulated gastric fluid (SGF); format: in vitro ADME
T1 construct: 0.32 g of porcine pepsin (Sigma-Aldrich, P7125) was dissolved under gentle agitation; purchased Sigma-Aldrich P7125
Method in brief: (§1)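 Peptide from a 1 mM DMSO stock was added to fluid pre-warmed at 37 °C. SGF was pH 1.2 NaCl with porcine pepsin (0.32 g per 100 ml), and SIF was pH 6.8 potassium phosphate with porcine pancreatin (1 g per 100 ml). Supernatant peptide was quantified by LC–MS, with residual expressed as T1/T0.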

rat α-thrombin = biological target: T2, rat α-thrombin (Rattus norvegicus, UniProt P18292); assay: Protease inhibition, Ki for rat α-thrombin (fluorogenic substrate Z-Gly-Gly-Arg-AMC); format: biochemical; settings: rat alpha thrombin; for Slope normalized to DMSO (proteolytic substrate cleavage over time): replicates R1-R3
T2 construct: rat α-thrombin (Molecular Innovations) were used at final concentrations of 2 nM and 3 nM; purchased Molecular Innovations
Method in brief: (§2)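 Inhibition was measured as AMC fluorescence from 50 μM substrate, monitored for 30 min at 25 °C, relative to a peptide-free control. Human and rat enzymes were present at 2 nM and 3 nM final, respectively, in 50 mM Tris-HCl pH 7.4, 150 mM NaCl, 10 mM MgCl2, 1 mM CaCl2. Ki derives from fitted IC50 via Cheng–Prusoff.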

human α-thrombin = human α-thrombin (Homo sapiens, UniProt P00734); assay: Protease inhibition, Ki for human α-thrombin (fluorogenic substrate Z-Gly-Gly-Arg-AMC); format: biochemical; settings: human alpha thrombin; for Slope normalized to DMSO (proteolytic substrate cleavage over time): replicates R1-R3
Method in brief: as §2

[1] = Passive artificial membrane permeability (PAMPA)
[2] = Peptide stability in simulated intestinal fluid (SIF); format: in vitro ADME, porcine; settings: simulated gi fluid; 8 h, 37 °C, pH 6.8; read-out: Proteolytic stability: SIF (8 h) % remaining
Method in brief: as §1

porcine pancreatin = assay: as above; format: in vitro ADME; settings: after 8 h vs 0 h (TIC)
Method in brief: as §1

T1 sequence (P00791 60-385): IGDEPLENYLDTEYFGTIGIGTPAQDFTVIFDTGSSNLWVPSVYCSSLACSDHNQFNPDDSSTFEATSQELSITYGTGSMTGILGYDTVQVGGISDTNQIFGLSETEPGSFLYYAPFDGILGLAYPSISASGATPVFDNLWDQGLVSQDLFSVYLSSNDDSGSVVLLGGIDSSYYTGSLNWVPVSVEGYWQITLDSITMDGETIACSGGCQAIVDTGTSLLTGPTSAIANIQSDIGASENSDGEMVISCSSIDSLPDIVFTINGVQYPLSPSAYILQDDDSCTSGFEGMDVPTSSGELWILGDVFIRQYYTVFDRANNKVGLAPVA

SGF stability, Residual peptide Average (porcine pepsin; after 8 h vs 0 h (TIC), average of R1-R3): 92.45
SGF stability, Residual peptide (porcine pepsin; after 8 h vs 0 h (TIC), single replicates R1-R3): 99.51 and 90.02 and 87.82
remaining at 8 h (porcine pepsin; simulated gi fluid, 8 h, 37 °C, pH 1.2, read-out: Proteolytic stability: SGF (8 h) % remaining): 92 ± 6%
Ki (rat α-thrombin; average of R1-R3, read-out: Ki Average, rat alpha thrombin inhibition): 183 nM
Slope normalized to DMSO (proteolytic substrate cleavage over time) (rat α-thrombin; peptide 1.02E-03 uM): 99.2 and 100.9 and 93.8
Slope normalized to DMSO (proteolytic substrate cleavage over time) (rat α-thrombin; peptide 1.04E+00 uM): 29.7 and 30.1 and 28.1
Slope normalized to DMSO (proteolytic substrate cleavage over time) (rat α-thrombin; peptide 1.27E-04 uM): 101.2 and 100.0 and 97.1
Slope normalized to DMSO (proteolytic substrate cleavage over time) (rat α-thrombin; peptide 1.30E-01 uM): 74.9 and 71.7 and 69.9
Slope normalized to DMSO (proteolytic substrate cleavage over time) (rat α-thrombin; peptide 1.59E-05 uM): 103.1 and 102.5 and 98.1
Slope normalized to DMSO (proteolytic substrate cleavage over time) (rat α-thrombin; peptide 1.63E-02 uM): 92.3 and 92.5 and 97.9
Slope normalized to DMSO (proteolytic substrate cleavage over time) (rat α-thrombin; peptide 1.67E+01 uM): 5.4 and 8.1 and 5.8
Slope normalized to DMSO (proteolytic substrate cleavage over time) (rat α-thrombin; peptide 2.03E-03 uM): 98.5 and 94.4 and 93.1
Slope normalized to DMSO (proteolytic substrate cleavage over time) (rat α-thrombin; peptide 2.08E+00 uM): 20.1 and 19.4 and 16.8
Slope normalized to DMSO (proteolytic substrate cleavage over time) (rat α-thrombin; peptide 2.54E-04 uM): 119.5 and 99.6 and 95.9
Slope normalized to DMSO (proteolytic substrate cleavage over time) (rat α-thrombin; peptide 2.60E-01 uM): 60.8 and 61.1 and 58.9
Slope normalized to DMSO (proteolytic substrate cleavage over time) (rat α-thrombin; peptide 3.18E-05 uM): 100.8 (2×) and 96.5
Slope normalized to DMSO (proteolytic substrate cleavage over time) (rat α-thrombin; peptide 3.26E-02 uM): 86.1 and 87.0 and 83.0
Slope normalized to DMSO (proteolytic substrate cleavage over time) (rat α-thrombin; peptide 3.33E+01 uM): 5.3 (2×) and 6.5
Slope normalized to DMSO (proteolytic substrate cleavage over time) (rat α-thrombin; peptide 4.07E-03 uM): 93.9 and 97.5 and 93.1
Slope normalized to DMSO (proteolytic substrate cleavage over time) (rat α-thrombin; peptide 4.17E+00 uM): 12.5 and 13.2 and 11.9
Slope normalized to DMSO (proteolytic substrate cleavage over time) (rat α-thrombin; peptide 5.09E-04 uM): 99.8 and 101.3 and 106.4
Slope normalized to DMSO (proteolytic substrate cleavage over time) (rat α-thrombin; peptide 5.21E-01 uM): 39.6 and 40.5 and 38.3
Slope normalized to DMSO (proteolytic substrate cleavage over time) (rat α-thrombin; peptide 6.36E-05 uM): 100.0 and 99.8 and 96.8
Slope normalized to DMSO (proteolytic substrate cleavage over time) (rat α-thrombin; peptide 6.51E-02 uM): 90.0 and 82.1 and 78.1
Slope normalized to DMSO (proteolytic substrate cleavage over time) (rat α-thrombin; peptide 6.67E+01 uM): 6.2 and 7.3 and 4.1
Slope normalized to DMSO (proteolytic substrate cleavage over time) (rat α-thrombin; peptide 7.95E-06 uM): 105.8 and 104.8 and 99.9
Slope normalized to DMSO (proteolytic substrate cleavage over time) (rat α-thrombin; peptide 8.14E-03 uM): 96.3 and 93.4 and 96.8
Slope normalized to DMSO (proteolytic substrate cleavage over time) (rat α-thrombin; peptide 8.33E+00 uM): 9.2 and 9.9 and 7.4
IC50 (rat α-thrombin; single replicates R1-R3, read-out: IC50, rat alpha thrombin inhibition): 339 nM and 326 nM (2×)
Ki (human α-thrombin; average of R1-R3, read-out: Ki Average, human alpha thrombin inhibition): 608 nM
Slope normalized to DMSO (proteolytic substrate cleavage over time) (human α-thrombin; peptide 1.02E-03 uM): 102.8 and 91.6 and 92.3
Slope normalized to DMSO (proteolytic substrate cleavage over time) (human α-thrombin; peptide 1.04E+00 uM): 41.6 and 46.5 and 44.1
Slope normalized to DMSO (proteolytic substrate cleavage over time) (human α-thrombin; peptide 1.27E-04 uM): 104.6 and 98.9 and 94.9
Slope normalized to DMSO (proteolytic substrate cleavage over time) (human α-thrombin; peptide 1.30E-01 uM): 89.0 and 82.0 and 80.6
Slope normalized to DMSO (proteolytic substrate cleavage over time) (human α-thrombin; peptide 1.59E-05 uM): 106.7 and 95.1 and 97.4
Slope normalized to DMSO (proteolytic substrate cleavage over time) (human α-thrombin; peptide 1.63E-02 uM): 99.4 and 97.2 and 88.2
Slope normalized to DMSO (proteolytic substrate cleavage over time) (human α-thrombin; peptide 2.03E-03 uM): 103.4 and 94.4 and 88.8
Slope normalized to DMSO (proteolytic substrate cleavage over time) (human α-thrombin; peptide 2.08E+00 uM): 29.1 and 35.9 and 29.9
Slope normalized to DMSO (proteolytic substrate cleavage over time) (human α-thrombin; peptide 2.54E-04 uM): 103.3 and 99.1 and 91.3
Slope normalized to DMSO (proteolytic substrate cleavage over time) (human α-thrombin; peptide 2.60E-01 uM): 77.6 and 74.7 and 72.2
Slope normalized to DMSO (proteolytic substrate cleavage over time) (human α-thrombin; peptide 3.18E-05 uM): 106.8 and 94.8 and 91.3
Slope normalized to DMSO (proteolytic substrate cleavage over time) (human α-thrombin; peptide 3.26E-02 uM): 96.6 and 90.1 and 84.7
Slope normalized to DMSO (proteolytic substrate cleavage over time) (human α-thrombin; peptide 4.07E-03 uM): 86.5 and 95.5 and 89.4
Slope normalized to DMSO (proteolytic substrate cleavage over time) (human α-thrombin; peptide 4.17E+00 uM): 17.9 and 25.7 and 18.3
Slope normalized to DMSO (proteolytic substrate cleavage over time) (human α-thrombin; peptide 5.21E-01 uM): 60.8 and 59.2 and 52.4
Slope normalized to DMSO (proteolytic substrate cleavage over time) (human α-thrombin; peptide 6.36E-05 uM): 98.6 and 95.0 and 94.0
Slope normalized to DMSO (proteolytic substrate cleavage over time) (human α-thrombin; peptide 6.51E-02 uM): 91.4 and 89.0 and 83.1
IC50 (human α-thrombin; single replicates R1-R3, read-out: IC50, human alpha thrombin inhibition): 700 nM and 850 nM and 816 nM
Ki (human α-thrombin; single replicates R1-R3, read-out: Ki, human alpha thrombin inhibition): 540 nM and 655 nM and 629 nM
PAMPA permeability: % permeability ([1]; 50 μM, 12–18 h, acceptor concentration relative to equilibrium): 47 ± 3%
Papp at 50 μM ([1]; PAMPA, pH 7.4): 6.17 ×10⁻⁶ cm/s
Permeability% Average ([1]; top well sample vs theoretical equilibrium sample (TIC), average of R1-R3): 46.6%
Permeability% ([1]; top well sample vs theoretical equilibrium sample (TIC), single replicates R1-R3): 44.27% and 50.38% and 45.09%
remaining at 8 h [2]: 76 ± 8%
SIF stability, Residual peptide Average (porcine pancreatin; average of R1-R3): 75.90
SIF stability, Residual peptide (porcine pancreatin; single replicates R1-R3): 75.23 and 67.97 and 84.49
SMILES: O=C1C[C@H]2CCCN2C(=O)[C@H](Cc2ccccc2)NC(=O)[C@@H](NC(=O)c2ccc(Cl)s2)CSCc2cccc(n2)CSCCN1 [compound 31]
Ki (rat α-thrombin; single replicates R1-R3, read-out: Ki, rat alpha thrombin inhibition): 188 nM (2×) and 181 nM (2×) and 180 nM (2×)
